Reference: paper PMC7377239, “Cardiovascular Effects of Polychlorinated Biphenyls and Their Major Metabolites” (Environmental Health Perspectives, 2020)
Where two headings read alike, the source gives them in different places.

Key:
[1] = test system: iCell endothelial cells (human iPSC-derived ECs); assay: Tube formation (tubulogenesis) assay in iCell endothelial cells, 18 h; assay type: cell-based; conditions: Homo sapiens, Endothelial cell; for activity at 0.1 µM: 0.10 µM
Summary of the method: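 Tube formation was measured by calcein AM imaging after overnight compound exposure (37°C, 0.5% DMSO vehicle) of human iPSC-derived ECs, 7,500/well, on reduced-growth-factor Geltrex in starvation medium. Vehicle-normalized data fitted to four-parameter logistic; POD set at one vehicle SD; without response, 100 μM taken as NOAEL.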

[2] = test system: HUVECs; assay: High-content imaging cytotoxicity in HUVECs, 24 h; assay type: cell-based, human; conditions: Homo sapiens, HUVEC, 24 h; for viability at 0.01 µM / activity at 0.01 µM: concentration 0.01 µM; for viability at 0.01 µM / activity at 0.01 µM / viability at 0.1 µM / activity at 0.1 µM / viability at 1 µM / activity at 1 µM / viability at 10 µM / activity at 10 µM / viability at 100 µM / activity at 100 µM: 0.00 µM = 100.00; for viability at 0.1 µM / activity at 0.1 µM: concentration 0.10 µM; for viability at 1 µM / activity at 1 µM: concentration 1.00 µM; for viability at 10 µM / activity at 10 µM: concentration 10.00 µM; for viability at 100 µM / activity at 100 µM: concentration 100.00 µM
Summary of the method: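 Confluent HUVEC monolayers, passages 1–5, received test chemicals for 24 h. Cytotoxicity was scored from triple-stain high-content images, with PODs defined by a one-SD deviation from 0.5% DMSO vehicle controls.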

[3] = iPSC-EC, 0.00 µM = 100.00, read-out: endo.mtl.18hr
[4] = iPSC-EC, 0.00 µM = 100.00, read-out: endo.tlps.18hr
[5] = iPSC-EC, 0.00 µM = 100.00, read-out: endo.tta.18hr
[6] = iPSC-EC, 0.00 µM = 100.00, read-out: endo.ttl.18hr
[7] = HUVECs, 24 hr, read-out: huvec.cyto.24hr
[8] = HUVECs, 24 hr, read-out: huvec.mito.24hr
[9] = HUVECs, 24 hr, read-out: huvec.mitoint.24hr
[10] = HUVECs, 24 hr, read-out: huvec.nma.24hr
[11] = HUVECs, 24 hrs, read-out: huvec.tc.24hrs

Clc1ccc(-c2cc(Cl)c(Cl)c(Cl)c2)cc1Cl [PCB126]
activity at 0.01 µM [1, 3]: 99.5%
activity at 0.01 µM [1, 4]: 175%
activity at 0.01 µM [1, 5]: 91%
activity at 0.01 µM [1, 6]: 90.1%
activity at 0.1 µM [1, 3]: 125%
activity at 0.1 µM [1, 4]: 110%
activity at 0.1 µM [1, 5]: 130%
activity at 0.1 µM [1, 6]: 136%
activity at 1 µM [1, 3]: 104%
activity at 1 µM [1, 4]: 99.1%
activity at 1 µM [1, 5]: 126%
activity at 1 µM [1, 6]: 125%
activity at 10 µM [1, 3]: 93.8%
activity at 10 µM [1, 4]: 52.4%
activity at 10 µM [1, 5]: 91.2%
activity at 10 µM [1, 6]: 100%
activity at 100 µM [1, 3]: 74.1%
activity at 100 µM [1, 4]: 40.1%
activity at 100 µM [1, 5]: 41.4%
activity at 100 µM [1, 6]: 39.6%
minimal effective concentration ([1]; iPSC-EC, 100.00 = highest concentration tested, read-out: endo.mtl.18hr POD): 28.1 µM
minimal effective concentration ([1]; iPSC-EC, 100.00 = highest concentration tested, read-out: endo.tlps.18hr POD): 4.68 µM
minimal effective concentration ([1]; iPSC-EC, 100.00 = highest concentration tested, read-out: endo.tta.18hr POD): 25.7 µM
minimal effective concentration ([1]; iPSC-EC, 100.00 = highest concentration tested, read-out: endo.ttl.18hr POD): 38.9 µM
viability at 0.01 µM [2, 7]: 86.8%
activity at 0.01 µM [2, 8]: 85.6%
activity at 0.01 µM [2, 9]: 89%
activity at 0.01 µM [2, 10]: 94.2%
viability at 0.1 µM [2, 7]: 93.4%
activity at 0.1 µM [2, 8]: 92%
activity at 0.1 µM [2, 9]: 79.3%
activity at 0.1 µM [2, 10]: 93.5%
viability at 1 µM [2, 7]: 93.8%
activity at 1 µM [2, 8]: 92.5%
activity at 1 µM [2, 9]: 83.6%
activity at 1 µM [2, 10]: 95.2%
viability at 10 µM [2, 7]: 91.2%
activity at 10 µM [2, 8]: 89.7%
activity at 10 µM [2, 9]: 74.2%
activity at 10 µM [2, 10]: 93%
viability at 100 µM [2, 7]: 57.1%
activity at 100 µM [2, 8]: 55%
activity at 100 µM [2, 9]: 96.7%
activity at 100 µM [2, 10]: 84.5%
minimal effective concentration ([2]; HUVECs, 24 hr, MAX 100.00, read-out: huvec.cyto.24hr POD): 5.33 µM
minimal effective concentration ([2]; HUVECs, 24 hr, MAX 100.00, read-out: huvec.mito.24hr POD): 100 µM
minimal effective concentration ([2]; HUVECs, 24 hr, MAX 100.00, read-out: huvec.mitoint.24hr POD): 100 µM
minimal effective concentration ([2]; HUVECs, 24 hr, MAX 100.00, read-out: huvec.nma.24hr POD): 100 µM
viability at 0.01 µM [2, 11]: 86.9%
viability at 0.1 µM [2, 11]: 93.4%
viability at 1 µM [2, 11]: 93.8%
viability at 10 µM [2, 11]: 91.4%
viability at 100 µM [2, 11]: 57.3%
minimal effective concentration ([2]; HUVECs, 24 hrs, MAX 100.00, read-out: huvec.tc.24hrs POD): 5.33 µM

COc1ccc(-c2cccc(Cl)c2)cc1Cl [4-OMe-PCB 11, 4-methoxy-3,3′-dichlorobiphenyl]
minimal effective concentration ([1]; endothelial cells (endo), tube formation mtl, 18 hr, read-out: POD endo.mtl.18hr): 100 µM
minimal effective concentration ([1]; endothelial cells (endo), tube formation tlps, 18 hr, read-out: POD endo.tlps.18hr): 28.4 µM
minimal effective concentration ([1]; endothelial cells (endo), tube formation tta, 18 hr, read-out: POD endo.tta.18hr): 0.00169 µM
minimal effective concentration ([1]; endothelial cells (endo), tube formation ttl, 18 hr, read-out: POD endo.ttl.18hr): 0.00197 µM
minimal effective concentration ([2]; cyto, 24 hr, read-out: POD huvec.cyto.24hr): 7.59 µM
minimal effective concentration ([2]; mito, 24 hr, read-out: POD huvec.mito.24hr): 6.19 µM
minimal effective concentration ([2]; mitoint, 24 hr, read-out: POD huvec.mitoint.24hr): 16 µM
minimal effective concentration ([2]; nma, 24 hr, read-out: POD huvec.nma.24hr): 6.39 µM
minimal effective concentration ([2]; tc, 24 hr, read-out: POD huvec.tc.24hr): 7.59 µM
